Here are results for twelve molecules from paper PMC7034394 (Journal of medicinal chemistry, 2019).

Structures are written as SMILES. “Also recorded” adds a separate entry of the source.

The bioavailability is dose-corrected exposure relative to a reference, in per cent. Low values mean little systemic uptake, high ones much systemic uptake.

The target of one series is T1, slc26a3 (DRA) (Mus musculus, UniProt Q9WVC8).
T1 sequence (Q9WVC8 1-757): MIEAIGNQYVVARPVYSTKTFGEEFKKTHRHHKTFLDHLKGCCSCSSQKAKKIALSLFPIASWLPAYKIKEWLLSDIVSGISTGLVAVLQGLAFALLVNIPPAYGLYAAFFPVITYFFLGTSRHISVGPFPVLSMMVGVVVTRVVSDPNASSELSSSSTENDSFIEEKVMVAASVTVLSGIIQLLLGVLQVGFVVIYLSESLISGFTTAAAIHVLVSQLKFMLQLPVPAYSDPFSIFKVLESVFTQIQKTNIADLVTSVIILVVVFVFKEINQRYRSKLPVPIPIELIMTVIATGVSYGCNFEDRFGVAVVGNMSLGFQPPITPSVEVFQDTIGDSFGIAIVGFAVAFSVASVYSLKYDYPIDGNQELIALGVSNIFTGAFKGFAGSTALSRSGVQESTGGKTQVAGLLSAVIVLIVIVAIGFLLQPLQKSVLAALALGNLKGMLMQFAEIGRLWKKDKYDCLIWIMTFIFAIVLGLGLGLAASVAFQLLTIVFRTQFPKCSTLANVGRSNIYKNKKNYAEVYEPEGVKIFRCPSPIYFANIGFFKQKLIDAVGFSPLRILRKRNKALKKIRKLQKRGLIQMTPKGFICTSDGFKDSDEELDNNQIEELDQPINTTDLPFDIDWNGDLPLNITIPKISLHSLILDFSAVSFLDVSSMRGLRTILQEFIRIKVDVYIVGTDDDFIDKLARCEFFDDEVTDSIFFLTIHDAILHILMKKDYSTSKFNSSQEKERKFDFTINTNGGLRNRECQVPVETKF
The format is cell-based, murine. The following applies: for slc26a3 inhibition at 5 μM: 5 μM compound.

The target in a further series is T2, slc26a6 (PAT-1) (Mus musculus, UniProt Q8CIW6).
T2 sequence (Q8CIW6 1-758): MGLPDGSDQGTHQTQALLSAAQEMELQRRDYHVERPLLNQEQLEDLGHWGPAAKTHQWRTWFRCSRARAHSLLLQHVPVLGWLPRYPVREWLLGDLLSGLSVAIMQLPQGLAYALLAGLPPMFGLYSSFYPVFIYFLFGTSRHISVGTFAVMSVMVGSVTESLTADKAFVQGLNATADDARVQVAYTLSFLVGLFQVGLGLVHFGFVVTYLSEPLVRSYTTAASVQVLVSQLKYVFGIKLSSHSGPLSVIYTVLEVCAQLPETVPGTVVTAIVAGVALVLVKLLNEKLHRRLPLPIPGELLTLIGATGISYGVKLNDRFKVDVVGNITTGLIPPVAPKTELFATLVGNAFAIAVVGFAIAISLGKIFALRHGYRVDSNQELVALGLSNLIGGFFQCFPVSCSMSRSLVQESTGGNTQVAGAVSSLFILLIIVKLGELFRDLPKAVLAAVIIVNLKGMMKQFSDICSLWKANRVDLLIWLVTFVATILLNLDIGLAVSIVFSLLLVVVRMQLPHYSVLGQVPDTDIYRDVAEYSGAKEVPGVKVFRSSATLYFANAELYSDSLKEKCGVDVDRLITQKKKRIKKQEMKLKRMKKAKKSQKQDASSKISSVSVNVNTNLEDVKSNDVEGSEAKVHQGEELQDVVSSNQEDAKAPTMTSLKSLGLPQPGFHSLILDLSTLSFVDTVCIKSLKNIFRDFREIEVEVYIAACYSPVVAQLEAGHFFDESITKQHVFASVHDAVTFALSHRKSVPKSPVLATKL
Format: cell-based, murine. The following applies: 10 μM compound, 10 min preincubation.

Series [1] concerns loperamide-treated mice. Briefly: Loperamide-induced constipation model in mice. Format: in vivo. The following applies: for Stool water content: 3 h stool.
Another series concerns the target T3, SLC26A9 (Homo sapiens, UniProt Q7LBE3).
T3 sequence (Q7LBE3 1-791): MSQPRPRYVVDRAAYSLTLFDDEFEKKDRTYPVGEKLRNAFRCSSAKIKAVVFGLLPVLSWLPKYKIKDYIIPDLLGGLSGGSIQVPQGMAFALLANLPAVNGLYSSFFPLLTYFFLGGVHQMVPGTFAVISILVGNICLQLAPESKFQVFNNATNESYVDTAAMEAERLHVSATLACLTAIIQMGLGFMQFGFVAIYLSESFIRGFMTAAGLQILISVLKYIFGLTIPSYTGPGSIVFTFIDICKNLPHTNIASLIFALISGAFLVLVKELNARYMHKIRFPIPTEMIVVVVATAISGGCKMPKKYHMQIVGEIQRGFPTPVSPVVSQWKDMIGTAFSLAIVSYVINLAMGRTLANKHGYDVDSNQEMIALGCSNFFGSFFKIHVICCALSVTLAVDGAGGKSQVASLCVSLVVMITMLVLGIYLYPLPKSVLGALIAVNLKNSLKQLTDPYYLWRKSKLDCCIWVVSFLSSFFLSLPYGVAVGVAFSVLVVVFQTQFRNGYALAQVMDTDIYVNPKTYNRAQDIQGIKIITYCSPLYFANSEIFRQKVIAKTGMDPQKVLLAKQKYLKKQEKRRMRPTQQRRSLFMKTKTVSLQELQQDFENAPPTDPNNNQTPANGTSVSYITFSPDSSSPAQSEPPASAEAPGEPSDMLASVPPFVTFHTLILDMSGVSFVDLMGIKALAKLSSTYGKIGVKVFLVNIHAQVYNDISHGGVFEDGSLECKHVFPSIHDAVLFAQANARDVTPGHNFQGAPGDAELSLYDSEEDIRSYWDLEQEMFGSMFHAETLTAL
Format: cell-based. The conditions noted are these: 10 μM compound, 10 min preincubation.

Another series addresses T4, slc26a4 (pendrin) (Mus musculus, UniProt Q9R155).
T4 sequence (Q9R155 1-780): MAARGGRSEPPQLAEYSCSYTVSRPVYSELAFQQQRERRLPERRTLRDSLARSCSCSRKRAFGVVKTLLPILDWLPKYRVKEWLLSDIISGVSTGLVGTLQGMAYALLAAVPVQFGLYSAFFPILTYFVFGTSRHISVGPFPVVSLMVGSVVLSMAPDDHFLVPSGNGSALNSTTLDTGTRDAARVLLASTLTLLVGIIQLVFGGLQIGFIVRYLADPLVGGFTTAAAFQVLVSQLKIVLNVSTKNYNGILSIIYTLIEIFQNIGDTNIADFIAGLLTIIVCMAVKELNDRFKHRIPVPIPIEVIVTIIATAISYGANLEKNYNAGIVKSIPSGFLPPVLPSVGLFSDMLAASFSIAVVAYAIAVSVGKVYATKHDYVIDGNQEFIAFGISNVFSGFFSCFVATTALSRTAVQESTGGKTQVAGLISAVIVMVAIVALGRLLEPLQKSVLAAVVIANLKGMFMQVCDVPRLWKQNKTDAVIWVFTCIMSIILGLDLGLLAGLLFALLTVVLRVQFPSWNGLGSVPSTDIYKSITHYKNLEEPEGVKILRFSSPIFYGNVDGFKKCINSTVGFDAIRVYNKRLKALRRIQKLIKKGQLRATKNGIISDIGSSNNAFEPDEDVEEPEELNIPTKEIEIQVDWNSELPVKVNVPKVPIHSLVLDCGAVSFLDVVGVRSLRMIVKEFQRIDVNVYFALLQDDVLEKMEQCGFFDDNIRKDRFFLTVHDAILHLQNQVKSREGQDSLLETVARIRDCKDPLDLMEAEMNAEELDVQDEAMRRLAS
Format: cell-based, murine. The conditions noted are these: 10 μM compound, 10 min preincubation.

A short description of series [2]: Pharmacokinetics in mice, serum concentration by LC/MS. Format: in vivo. The conditions noted are these: for bioavailability: mouse, serum, po.
The test system of series [3] is loperamide-treated mice. The following applies: cited from earlier work.

With `C=CCOc1ccc2c(C)c(CC(=O)O)c(=O)oc2c1C` [4aa], the “slc26a3 inhibition at 5 μM” value at slc26a3 (DRA) is “no inhibition”.

Consider `CCCOc1ccc2c(C)c(CC(=O)O)c(=O)oc2c1C` [4ad], for which the “slc26a3 inhibition at 5 μM” value at slc26a3 (DRA) is on record as “no inhibition”.

Regarding `Cc1c(CC(=O)O)c(=O)oc2c(C)c(OS(=O)(=O)c3cccc(Cl)c3)ccc12` [4ar], the “slc26a3 inhibition at 5 μM” value on slc26a3 (DRA) is recorded as “no inhibition”.

As for `Cc1c(CC(=O)O)c(=O)oc2c(C)c(OCc3cccc(C(F)(F)F)c3)ccc12` [4be], the “Inhibition of chloride/iodide exchange, slc26a6 (PAT-1)” value at slc26a6 (PAT-1) was “not significantly inhibited”. In the series on loperamide-treated mice [1] (loperamide-treated mice, 5 mg/kg oral 1 h before loperamide, 5 mg/kg), the “3 h stool weight, pellet number, and water content” value is listed as “partially prevented constipation; also recorded: improved”. In addition, the “Inhibition of chloride/iodide exchange, SLC26A9” value on SLC26A9 is reported as “not significantly inhibited”. Further, on slc26a3 (DRA), the “Extent of inhibition of slc26a3-mediated anion exchange” value was “fully inhibited”. Further, the “Inhibition of chloride/iodide exchange, slc26a4 (pendrin)” value on slc26a4 (pendrin) is “not significantly inhibited”. The “Serum level at 16 h” value in series [2] (mice, single dose 5 mg/kg oral or intraperitoneal, 16 h) is “little compound remaining”. In series [2] (5 mg/kg), this molecule gave a bioavailability of 16 ± 7%.

In the case of `Cc1c(CC(=O)O)c(=O)oc2c(C)c(OCc3cccc(I)c3)ccc12` [4az], on slc26a6 (PAT-1), the “Inhibition of chloride/iodide exchange, slc26a6 (PAT-1)” value is reported as “not significantly inhibited”. For the same molecule, the “Effect on stool parameters compared to vehicle” value in the series with loperamide-treated mice [1] (control mice not treated with loperamide) is recorded as “no significant effect”. Moreover, the Stool water content result was “fully normalized” in the series on loperamide-treated mice [1] (loperamide-treated mice, 3 mg/kg oral) and “fully normalized” with loperamide-treated mice [1] (loperamide-treated mice, 10 mg/kg oral). Moreover, at SLC26A9, the “Inhibition of chloride/iodide exchange, SLC26A9” value is given as “not significantly inhibited”. The “Extent of inhibition of slc26a3-mediated anion exchange” value at slc26a3 (DRA) is listed as “fully inhibited”. For the same molecule, the “Inhibition of chloride/iodide exchange, slc26a4 (pendrin)” value on slc26a4 (pendrin) is listed as “not significantly inhibited”. Also, in series [2] (mice, single 10 mg/kg dose, oral (b1), oral or intraperitoneal), the “Duration of predicted therapeutic concentrations in serum” value was more than 72 h. Also, in series [2] (10 mg/kg), the bioavailability is 39 ± 4%.

Consider `Cc1c(CC(N)=O)c(=O)oc2c(C)c(OCc3cccc(Br)c3)ccc12` [8ae], for which the “slc26a3 inhibition activity, in words” value at slc26a3 (DRA) is “much reduced inhibition”.

For `COc1ccc2ccc(=O)oc2c1` [S3], the “slc26a3 inhibition activity, in words” value at slc26a3 (DRA) was “inactive”.

On to `Cc1c(CC(=O)O)c(=O)oc2c(C)c(OCc3cccc(Br)c3)ccc12` [4ba, 2-(7-((3-Bromobenzyl)oxy)-4,8-dimethyl-2-oxo-2H-chromen-3-yl)acetic Acid], for which, in the series on loperamide-treated mice [3], the “Efficacy in a mouse model of constipation” value is reported as “showed efficacy”. For the same molecule, the bioavailability in series [2] (5 mg/kg) turned out to be 54 ± 6.5%.

Regarding `Cc1c(CC(=O)O)c(=O)oc2c(C)c(OCCn3cccc3)ccc12` [4ap], the “slc26a3 inhibition at 5 μM” value at slc26a3 (DRA) was “inactive”.

As to `Cc1c(OCc2cccc(Br)c2)ccc2cc(C(=O)O)c(=O)oc12` [8aa], the “slc26a3 inhibition activity, in words” value on slc26a3 (DRA) is “inactive”.

For `Cc1c(CC(=O)O)c(=O)oc2c(C)c(OCCc3cccc(C(F)(F)F)c3)ccc12` [4as], the “slc26a3 inhibition at 5 μM” value at slc26a3 (DRA) is given as “no inhibition”.

`Cc1cccc(S(=O)(=O)Oc2ccc3c(C)c(CC(=O)O)c(=O)oc3c2C)c1` [4aq]: the “slc26a3 inhibition at 5 μM” value on slc26a3 (DRA) was “no inhibition”.
